Data: the OligoGym collection
Several values for one entry are separate records, joined by “and”; a condition that tells them apart may be missing. Identical values can stand only once. After the bases stand the sugars from the 5' end (letter, count) and the backbone: PS all phosphorothioate, else s phosphorothioate and o phosphodiester by linkage. Methylation of C is not given here. k = constrained ethyl (cEt); d = 2'-deoxy (DNA)

Biological target: MALAT1
Conditions: ASO, A431, 0.005 µM

| Sequence | target mRNA inhibition |
| --- | --- |
| CTCAATCCACTTGATC (sugars k3 d10 k3, PS) | 32% |
| CTTGTGTTCTCTTGAG (sugars k3 d10 k3, PS) | 13% |
| AACCCCCAGTTCAATA (sugars k3 d10 k3, PS) | 20% |
| AGGGTTATGCTTATTC (sugars k3 d10 k3, PS) | 63% and 60% |
| TGCACTCGCTCCTTCC (sugars k3 d10 k3, PS) | 33% |
| ACCCTCTAAGAGACAT (sugars k3 d10 k3, PS) | 35% |
| CTTATCTGCGGTTTCC (sugars k3 d10 k3, PS) | 62% and 53% |
| TACGAAAGTCCTTCAC (sugars k3 d10 k3, PS) | 35% |
| GTGGAAAGATTTGAGC (sugars k3 d10 k3, PS) | 17% |
| GTCAGGGACACACCCA (sugars k3 d10 k3, PS) | -11% |
| ACTTATCAATTCACCA (sugars k3 d10 k3, PS) | 28% |
| TTAGAGAAGAATCCCC (sugars k3 d10 k3, PS) | 31% |
| GCTGTCAATTAATGCT (sugars k3 d10 k3, PS) | 24% |
| ACAGCGGTACACTCCT (sugars k3 d10 k3, PS) | 42% |
| TAGGCTTTAAATGACG (sugars k3 d10 k3, PS) | 26% |
| AAAAAAGGCTTAGCGC (sugars k3 d10 k3, PS) | 0% |
| TGCATCGAGGTGAGGG (sugars k3 d10 k3, PS) | 21% |
| GAAGCATACCTTAACA (sugars k3 d10 k3, PS) | 5% |
| ATCAAGGATGTATATA (sugars k3 d10 k3, PS) | 0% |
| TCAAGGATGTATATAG (sugars k3 d10 k3, PS) | 6% |
| GTTGATATTTAAGAAC (sugars k3 d10 k3, PS) | -15% |
| CTTCTGCACCACCAGA (sugars k3 d10 k3, PS) | 13% |
| ACACACTACCATATCC (sugars k3 d10 k3, PS) | -3% |

| Sequence | target mRNA inhibition |
| --- | --- |
| AACTGCTTGCAGTCCT (sugars k3 d10 k3, PS) | 5% |
| TAGTACTATAGCATCT (sugars k3 d10 k3, PS) | 49% |
| CCCCGGAACTTTTAAA (sugars k3 d10 k3, PS) | 23% |
| TCATCCTACCACTCCC (sugars k3 d10 k3, PS) | 34% |
| TGTTCGAGAAATCGGA (sugars k3 d10 k3, PS) | 17% |
| GCAAGTCCTCATTACT (sugars k3 d10 k3, PS) | 50% and 30% |
| AGTCCTGCGACTTGCT (sugars k3 d10 k3, PS) | 26% |
| CCCCCAACTGCTTGCA (sugars k3 d10 k3, PS) | 29% |
| CCTAACATGCAATACT (sugars k3 d10 k3, PS) | 12% |
| TAGCAGCGGGATCAGA (sugars k3 d10 k3, PS) | 32% |
| CAATTTATAGACCCCT (sugars k3 d10 k3, PS) | -6% |
| CACAGGAACAAGTCCT (sugars k3 d10 k3, PS) | 16% |
| TTATTCCAGGATTAAT (sugars k3 d10 k3, PS) | -5% |
| TCCTCCGTGTGGTTGC (sugars k3 d10 k3, PS) | 18% |
| AACATAGTTCAACCCA (sugars k3 d10 k3, PS) | 12% |
| CAGGTCATCTATTCAC (sugars k3 d10 k3, PS) | 51% and 72% |
| ACATGCAATACTGCAG (sugars k3 d10 k3, PS) | 3% |
| ATGCCTACCGCACAGC (sugars k3 d10 k3, PS) | -8% |
| TACACCCAGTGGCTCA (sugars k3 d10 k3, PS) | 30% |
| CTAACTTCTGCACCAC (sugars k3 d10 k3, PS) | 38% |
| ACTTAAATTACTAGCG (sugars k3 d10 k3, PS) | -10% |
| ATTGTCTCAATTTGGC (sugars k3 d10 k3, PS) | 63% and 84% |
| GAAGGATGAAATGCCT (sugars k3 d10 k3, PS) | 7% |

| Sequence | target mRNA inhibition |
| --- | --- |
| GCATTGGAGATCAGCT (sugars k3 d10 k3, PS) | 11% |
| CCGCCGCCTTTGTGAG (sugars k3 d10 k3, PS) | 25% |
| TGACGCAATTCTCCCT (sugars k3 d10 k3, PS) | 33% |
| CTGCACTGTGCTGTAC (sugars k3 d10 k3, PS) | -5% |
| AGACCAACTAAGCGAA (sugars k3 d10 k3, PS) | 38% |
| ATCAGCTTCCGCTAAG (sugars k3 d10 k3, PS) | 4% |
| TCGGTTAAAAATAGGT (sugars k3 d10 k3, PS) | 16% |
| AAATCGCCATGGAAAG (sugars k3 d10 k3, PS) | 1% |
| TAGAGGGCCTCTATTG (sugars k3 d10 k3, PS) | 39% |
| TTCAACTGGGAATACT (sugars k3 d10 k3, PS) | 17% |
| AATTGTAGTTAATGTC (sugars k3 d10 k3, PS) | 36% |
| CTGCAGAGTTTGAGTG (sugars k3 d10 k3, PS) | -19% |
| TCAAGTCAAGCTCCTG (sugars k3 d10 k3, PS) | 3% |
| GTCTCCGAAGACACAG (sugars k3 d10 k3, PS) | -5% |
| ACCTTTTACTCTGATC (sugars k3 d10 k3, PS) | 34% |
| AGCTTATGGAACTTGA (sugars k3 d10 k3, PS) | 16% |
| CCTATCTTCACCACGA (sugars k3 d10 k3, PS) | 6% |
| CACCCAGAAGTGTTTA (sugars k3 d10 k3, PS) | -4% |
| GCCCCAGTCCTTTACA (sugars k3 d10 k3, PS) | 3% |
| TATTGGTATTAATTCG (sugars k3 d10 k3, PS) | 13% |
| AGCGAATGGCTTTGTC (sugars k3 d10 k3, PS) | 5% |
| TCCTTATTTAGAGGGC (sugars k3 d10 k3, PS) | 29% |
| CATTAAAGAGTGTTCG (sugars k3 d10 k3, PS) | 34% |

| Sequence | target mRNA inhibition |
| --- | --- |
| GCTAGTCCTCAGGATT (sugars k3 d10 k3, PS) | 47% |
| GACTTGCTCCCAAGAC (sugars k3 d10 k3, PS) | 7% |
| TGCCTTTAGGATTCTA (sugars k3 d10 k3, PS) | 45% |
| TAACCAACTTCCCCTT (sugars k3 d10 k3, PS) | 16% |
| TGCTACTCTTCTAAGT (sugars k3 d10 k3, PS) | 19% |
| TGTAGTTAATGTCAGC (sugars k3 d10 k3, PS) | 67% and 42% |
| CCATGGTTGTCCTACT (sugars k3 d10 k3, PS) | 10% |
| AGTGTTCCTGCATGTA (sugars k3 d10 k3, PS) | 31% |
| TAATGTCAGCCCAGTA (sugars k3 d10 k3, PS) | 7% |
| TTTTTGTGGTTATAGC (sugars k3 d10 k3, PS) | 75% and 88% |
| TTCTACCGTTTTTCAG (sugars k3 d10 k3, PS) | 10% |
| GAAGCCCCTGCGCTGG (sugars k3 d10 k3, PS) | 23% |
| CGAGTTCAAGTGGCCT (sugars k3 d10 k3, PS) | 18% |
| TAACTAGGCTTTAAAT (sugars k3 d10 k3, PS) | 14% |
| CAACACCCGGAAATCG (sugars k3 d10 k3, PS) | 18% |
| TTAATCACCTTCGGTT (sugars k3 d10 k3, PS) | 27% |
| CACTTTCCTTGCCCAA (sugars k3 d10 k3, PS) | 69% and 61% |
| GCATCAAGGCACTGAT (sugars k3 d10 k3, PS) | 35% |
| TTCCCTATATAAGGTC (sugars k3 d10 k3, PS) | 6% |
| GATTTTAAGGTTGCAT (sugars k3 d10 k3, PS) | 55% and 38% |
| TCTGATAACGAAGAGA (sugars k3 d10 k3, PS) | 21% |
| CAGTCCTTTTAGTAGC (sugars k3 d10 k3, PS) | 57% |
| CGAAGACACAGAGACC (sugars k3 d10 k3, PS) | 10% |

| Sequence | target mRNA inhibition |
| --- | --- |
| TATACTTCTCCAATAC (sugars k3 d10 k3, PS) | 18% |
| ATGAAATGCCTCTGCA (sugars k3 d10 k3, PS) | 13% |
| GAGTGGTTTTATCTAA (sugars k3 d10 k3, PS) | 31% |
| CCCCCCAAGATTGCCC (sugars k3 d10 k3, PS) | 14% |
| CCCAAGATTGCCCCAA (sugars k3 d10 k3, PS) | -7% |
| AAATGGTAGATTCCGT (sugars k3 d10 k3, PS) | 60% and 62% and 50% |
| ATTGTTTCATCCTACC (sugars k3 d10 k3, PS) | 22% |
| CTATTGGTATTAATTC (sugars k3 d10 k3, PS) | 7% |
| GCACTTATCCCTAACA (sugars k3 d10 k3, PS) | 58% and 40% |
| GCACAGCTCGGGCGAG (sugars k3 d10 k3, PS) | -20% |
| AATTAAATTGATGGGC (sugars k3 d10 k3, PS) | 17% |
| AGAGAACCACACACTA (sugars k3 d10 k3, PS) | 28% |
| TTGAGGGACAGTAGGT (sugars k3 d10 k3, PS) | 21% |
| ATACTATTGTCCCATA (sugars k3 d10 k3, PS) | 31% |
| CCCCCGGAACTTTTAA (sugars k3 d10 k3, PS) | -12% |
| ACATAGTTCAACCCAC (sugars k3 d10 k3, PS) | 18% |
| AGACTGTTGCTTGTTT (sugars k3 d10 k3, PS) | 1% |
| ACCTGGGTCAGCTGTC (sugars k3 d10 k3, PS) | 14% |
| GCTACAACAAGTAAGC (sugars k3 d10 k3, PS) | 9% |
| TAGAGAAGAATCCCCC (sugars k3 d10 k3, PS) | 34% |
| AACTCGCATCACCGGA (sugars k3 d10 k3, PS) | 21% |
| CGTATTTATAGACGGA (sugars k3 d10 k3, PS) | -9% |
